Results as given in patent publication US20250100962A1 (CITY OF HOPE, priority 2023, published 2025).
“Also recorded” adds a separate entry of the source.

Columns and labels:
[1] = test system: U2OS cells containing Per2::dLuc luciferase reporter; test: Real-time bioluminescence monitoring of Per2::Luciferase reporter in U2OS cells (LumiCycle); type: cell-based; details: for Modulatory Property: clock-modulatory classification
Description: U2OS cells or mouse fibroblasts (MF) containing a Per2-luciferase reporter (Yoo et al., 2004) were seeded at 4×10^5 concentration on 24 well plates and treated at 90% confluence with 1 ml 1×Fresh explant medium with desired compounds and controls. The seeding density was decided after trying several densities and choosing the one that after 24 h lead to 90% confluence. 1× Fresh explant medium was produced using 50% 2×DMEM buffer stock [DMEM powder (Gibco—Thermo Fisher CN: 12800-017), Sterile MilliQ water, pH7 1 M HEPES (Gibco—Thermo Fisher CN:15630080) and 7.5% Sodium Bicarbonate (Gibco—Thermo Fisher CN: 25080094)], 10% FBS (Cytiva), 37.9% Sterile MiliQ water, 1% PSG 100× (Gibco—Thermo Fisher CN: 10378016), 0.1% Sodium Hydroxixe (NaOH) 100 mM (Fishel Chemical CN: S318-500), 1% XenoLight D-Luciferin—Monopotassium Salt Bioluminiscent Substrate 100 mM (PerkinElmer CN: 122799). Treated cells were introduced to the LumiCycle96 (ActiMetrics) were they were cultured and Per2-luciferafe reporter luminescence was measured for 6 days. Raw and subtracted results for 5 days were exported and data was calculated as luminescence counts per second.

[2] = test system: C2C12 myoblasts; test: Myogenic differentiation of C2C12 myoblasts; type: cell-based, mouse; details: for MyHC-positive mature myotubes (immunofluorescence): C2C12 differentiation day 5-7
Description: Pictures were taken every day to monitor morphological progression, and proteins and RNA samples were collected on days indicated.
C2C12, C2C12 Bmal1 KD and C2C12 Scrambled control (SC) myoblasts were seeded at Day −1 at 2×105 concentration on 12 wells plates and maintained in 10% FBS until 80% confluency and treated with indicated compounds and controls in 2% FBS DMEM media to induce differentiation on Day 0. On days 3, 5 and 7 cells were fixed with 4% paraformaldehyde (from 37% Formaldehyde Baker Analyzed) and kept at 4° C. in PBS. Cells were permeabilized with Permeabilization solution of 0.5% Triton X-100 (Fisher Bioreagents CN: 9002-93-1) in PBS and blocked with Blocking solution of 1% BSA (Fisher Bioreagents CN:9048-46-8) in PBS. Primary antibodies were diluted in Washing solution of 0.01% Triton X-100 (Fisher Bioreagents CN: 9002-93-1) in PBS and left overnight at 4° C. Cells were then incubated with secondary antibodies in Washing solution at room temperature for 1 h. 1 μg/ml 4′,6′-diamidine-2′-phenylindole dihydrochloride (DAPI) was used to label for nuclei. […] To quantify the proliferation of myoblast, when needed, cells were treated with 1 μg/ml of EdU for 3 h before fixation. Detection of EdU was performed with Click-iT EdU Alexa Fluor 488 Imaging Kit before applying the immunofluorescence staining as described above.

[3] = test system: C2C12 myoblasts; test: EdU proliferation assay in C2C12 myoblasts; type: cell-based, mouse
Description: Cells were seeded at 0.2×10^5 concentration and treated with desired compounds and controls overnight. The seeding density was decided after trying several densities and choosing the one that after 24 h lead to visible, not clumping cells. 10 μM 5-ethynyl-2′-deoxyuridine (EdU) incorporation was performed during 4 h according to the kit protocol and detected by Click-iT Imaging Kit with Alexa 488 Fluorophore (Invitrogen). 1 μg/ml 4′,6′-diamidine-2′-phenylindole dihydrochloride (DAPI) was used to label for nuclei. Total number of EdU+ cells was counted from 8 representative fields at 20× and the rate of proliferation was calculated as percentage of EdU+/DAPI.

[4] = test system: Wnt signaling activity; test: TOPFlash luciferase reporter (Wnt activity) in U2OS cells; type: cell-based; details: for TOPFlash reporter activity, Wnt3a-containing media: Wnt3a stimulated; for TOPFlash Wnt activity, basal condition: without Wnt stimulation
Description: FIGS. 20A-20F. Effect of CM002 on activating circadian clock function. […] We tested the effect of CM002 from 0.2-5 μM on clock modulation in […] cells containing Per2::dLuc reporter using Lumicycle by monitoring chemiluminescence recordings for 6 days. The results were presented using the average original luminescence (FIG. 20A) or baseline-adjusted presentation (FIG. 20B). […] Based on the known clock effect on stimulating Wnt signaling activity, we used a TCF4 promoter-driven TOPFlash luciferase reporter to determine the effect of CM002 on Wnt pathway and compared this activity with CHX.
(§1) TOPFlash luciferase reporter assay. M50 Super 8×TOPFlash luciferase reporter containing Wnt-responsive TCF bindings sites was a gift from Randall Moon (Veeman, Slusarski, Kaykas et al., 2003) obtained from Addgene (Addgene plasmid #12456). Cells were seeded and grown overnight, and cell transfection was performed at 90% confluency. 24 hours following transfection, cells were treated using 10% Wnt3a conditioned media obtained from L Wnt-3A cell line (ATCC CRL-2647) to induce luciferase activity. Luciferase activity was assayed using Dual-Luciferase Reporter Assay Kit (Promega) in 96-well black plates. TOPFlash luciferase reporter luminescence was measured on microplate reader (TECAN infinite M200pro) and normalized to control FOPFlash activity, as previously described (Guo et al., 2012). The mean and standard deviation values were calculated for each well and graphed.

[5] = test system: Wnt signaling activity; test: TOPFlash luciferase reporter assay (Example 3); type: cell-based; details: for TOPFlash reporter activity, Wnt-stimulated: Wnt3a media
Description: as §1

[6] = test system: C3H10T1/2 cells; test: Clock and Wnt gene/protein expression in C3H10T1/2 cells; type: cell-based; details: for β-catenin protein level during adipogenic differentiation: 1 μM, before and after adipogenic induction; for mRNA levels of Wnt ligands and receptors / clock gene expression: 10T1/2 cells; for mRNA levels of Wnt ligands and receptors: 6 hours; for clock gene expression: RT-qPCR
Description: Immunoblot analysis. Total protein was extracted using lysis buffer containing 3% NaCl, 5% Tris-HCl, 10% Glycerol, 0.5% Triton X-10 in MilliQ water with protease inhibitor cocktail. 20-40 μg of total protein was resolved on 10% SDS-PAGE gels followed by immunoblotting on PVDF membranes (Bio-rad). Membranes were developed by chemiluminescence (SuperSignal West Pico, Pierce Biotechnology) and signals were obtained via a chemiluminescence imager (Amersham Imager 680, GE Biosciences).
RNA extraction and RT-qPCR analysis. PureLink RNA Mini Kit (Invitrogen) were used to isolate total RNA from cells. cDNA was generated using Revert Aid RT kit (ThermoFisher) and quantitative PCR was performed using SYBR Green Master Mix (Thermno Fisher) in triplicates on ViiA 7 Real-Time PCR System (Applied Biosystems). Relative expression levels were determined using the comparative Ct method with normalization to 361B4 as internal control.

[7] = U2OS Per2 luciferase reporter, recording 5-6 days, vs DMSO

Row | Compound | circadian period length [1, 7] | Modulatory Property [1] | MyHC-positive mature myotubes (immunofluorescence) [2] | TOPFlash reporter activity, Wnt3a-containing media [4] | TOPFlash Wnt activity, basal condition [4] | TOPFlash reporter activity, basal condition [5] | TOPFlash reporter activity, Wnt-stimulated [5] | β-catenin protein level during adipogenic differentiation [6] | mRNA levels of Wnt ligands and receptors [6] | clock gene expression [6] | also measured
1 | CCCCCC/C=N/C(=N)NC(=N)Nc1ccc(Cl)cc1 [CM002] | shortening of period length starting at 0.2 μM that was maintained at 2 μM; also recorded: dose-dependent effect on inducing clock period length shortening | strong clock activator | enhanced differentiation induced by 0.5 μM CM002 than CHX with strongest effect on promoting myotube formation observed at CM002 at 1 μM | 0.1 μM of CM002 comparable to that of CHX induction at 1 μM | augmented Wnt activity at basal condition | sufficient to stimulate TOPFlash reporter activity to a similar degree as CHX | at lower concentrations at 0.1 and 0.2 μM were sufficient to induce TOPFlash reporter activity comparable to that of CHX at 0.5 μM | partially reverse the decline of β-catenin level at the differentiated state | significant induction of Wnt ligands including Wnt1 and Wnt10a transcripts | induction of core clock transcription activators, CLOCK and Bmal1, together with up-regulation of its direct transcriptional target within the molecular clock loop, Nr1d1 | LumiCycle Result: Clock activity, Amplitude ([1]; Table 1, U2OS Per2::dLuc): Amplitude: Increased; LumiCycle Result: Clock activity, Period ([1]; Table 1, U2OS Per2::dLuc): Period: Shortening; LumiCycle Result: Clock activity (overall) ([1]; U2OS Per2::dLuc, CHX analogs screened): strongest effect on activating circadian clock function; Myogenesis ([2]; Table 1 summary of CHX analogs): Enhanced; proliferation (EdU incorporation) ([3]; 4 hours, 0.5 and 1 μM): significantly increased proliferation of C2C12 myoblasts
2 | [H]/N=C(\N/C(=N/[H])NCCCCCCNC(=N)NC(=N)Nc1ccc(Cl)cc1)Nc1ccc(Cl)cc1 [CHX, chlorhexidine] | dose-dependent reduction of period length from 0.2 to 1 μM | clock activator | increased numbers of MyHC-positive mature myotubes | significantly induced | augmented Wnt activity at basal condition | could induce Wnt signaling activity | could induce Wnt signaling activity | sufficient to re-activate the lost b-catenin protein level during adipogenic differentiation | induced the mRNA levels of Wnt1, Wnt10a, Fzd2, Fzd5 | inductions of Pers and Crys | toxicity in reporter cells ([1]; CHX at 5 and 10 μM): significant toxicity with reduced amplitude; effective concentration range, dose response of bioluminescence activity ([1]; Per2-Luc U2OS cells): 0.2 to 2 µM; clock cycling amplitude [1, 7]: at a low concentration of 0.2 μM induced clock amplitude, but not at any higher concentrations examined; myotube hypertrophy ([2]; 0.5 μM, Day 7): induced notable myotube hypertrophy; morphological progression of myotube formation ([2]; 2% serum differentiation, phase-contrast): markedly accelerated the morphological progression of myotube formation; induction of Myf5 and eMyhc in Bmal1-deficient myoblasts ([2]; BMKD myoblasts): loss of CHX induction of Myf5 and eMyhc; differentiation of Bmal1 shRNA (BMKD) myoblasts ([2]; BMKD vs SC): failed to augment BMKD myoblast differentiation; effective concentration range, pro-myogenic activities ([2]; C2C12 myoblasts): 0.2 to 0.5 µM; toxicity during differentiation ([2]; CHX at 2 and 5 μM): appeared to be toxic to myoblasts with cell death during differentiation; Myf5, Myod1 and eMyhc expressions ([2]; RT-qPCR): significantly induced by 0.5 μM CHX with a tendency toward higher expression 0.2 μM; Myf5 and Myogenin proteins ([2]; day 3 and day 5 of differentiation, immunoblot): early induction of myogenic factors Myf5 and Myogenin proteins; increase of proliferation (EdU incorporation) ([3]; both concentrations tested, 24 hours): ~40%
